Test results as given in ChEMBL document CHEMBL1130957, “Functional characteristics of a series of N4-substituted 1-(2,3-dihydro-1,4-benzodioxin-5-yl)piperazines as 5-HT1A receptor ligands. Structure-activity relationships” (Bioorg Med Chem Lett, 1998).

Legend:
[1] = biological target: T1, 5-hydroxytryptamine receptor 1A (Rattus norvegicus, UniProt P19327); experiment: (§1) Compound was tested for its potency against 5-hydroxytryptamine 1A receptor in rat frontal cortex membranes (experiment 2); type: functional, cell membranes, Membrane; settings: read-out: pA2 (converted)
T1 sequence (P19327 whole entry): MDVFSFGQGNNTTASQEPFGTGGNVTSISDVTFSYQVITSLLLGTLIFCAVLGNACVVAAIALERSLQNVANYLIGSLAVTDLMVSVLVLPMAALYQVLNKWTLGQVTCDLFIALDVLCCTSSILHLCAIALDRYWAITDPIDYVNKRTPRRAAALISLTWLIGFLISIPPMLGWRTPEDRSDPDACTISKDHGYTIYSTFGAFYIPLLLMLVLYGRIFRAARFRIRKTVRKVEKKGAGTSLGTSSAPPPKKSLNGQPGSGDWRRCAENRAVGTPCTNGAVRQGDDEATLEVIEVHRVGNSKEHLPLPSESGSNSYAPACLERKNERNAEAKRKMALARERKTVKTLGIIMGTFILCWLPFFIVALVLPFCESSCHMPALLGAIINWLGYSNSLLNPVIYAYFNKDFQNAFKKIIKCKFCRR

[2] = biological target: T2, 5-hydroxytryptamine receptor 1A (Homo sapiens) (UniProt P08908); experiment: Agonistic efficacy as adenylyl cyclase assay in CHO cells expressing human 5-HT1A receptor (experiment 1); type: functional, cell-based
T2 sequence (whole entry): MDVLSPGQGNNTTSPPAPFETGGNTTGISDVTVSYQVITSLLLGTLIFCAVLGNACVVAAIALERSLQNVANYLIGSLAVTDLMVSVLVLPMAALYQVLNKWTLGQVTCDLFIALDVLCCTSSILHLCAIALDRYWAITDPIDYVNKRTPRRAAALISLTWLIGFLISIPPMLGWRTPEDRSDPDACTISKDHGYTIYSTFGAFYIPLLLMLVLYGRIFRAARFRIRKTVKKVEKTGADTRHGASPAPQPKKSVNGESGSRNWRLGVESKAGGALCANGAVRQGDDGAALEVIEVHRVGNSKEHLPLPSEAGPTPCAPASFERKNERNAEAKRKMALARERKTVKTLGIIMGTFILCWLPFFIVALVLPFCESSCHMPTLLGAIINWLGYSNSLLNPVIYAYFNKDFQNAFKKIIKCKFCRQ

[3] = biological target: T1, 5-hydroxytryptamine receptor 1A
Description: Inhibition of [3H]8-OH-DPAT binding to 5-hydroxytryptamine 1A receptor of rat frontal cortex membranes

[4] = biological target: T2, 5-hydroxytryptamine receptor 1A (Homo sapiens); experiment: Antagonistic efficacy as adenylyl cyclase assay in CHO cells expressing human 5-HT1A receptor (experiment 2); type: functional, cell-based
[5] = biological target: T2, 5-hydroxytryptamine receptor 1A (Homo sapiens); experiment: Agonistic efficacy in adenylyl cyclase assay in CHO cells expressing human 5-HT1A receptor (experiment 2); type: functional, cell-based
[6] = biological target: T2, 5-hydroxytryptamine receptor 1A (Homo sapiens); experiment: Antagonistic efficacy as adenylyl cyclase assay in CHO cells expressing human 5-HT1A receptor (experiment 1); type: functional, cell-based
[7] = biological target: T3, 5-hydroxytryptamine receptor 1A (Homo sapiens, UniProt P08908); experiment: Compound was tested for its potency against human 5-hydroxytryptamine 1A receptor expressed in CHO cells (experiment 2); type: functional, cell-based
T3 sequence (P08908 whole entry): T2 sequence (whole entry)

[8] = biological target: T3, 5-hydroxytryptamine receptor 1A; experiment: Potency against human 5-hydroxytryptamine 1A receptor expressed in CHO cells (experiment 1); type: functional, cell-based
[9] = biological target: T3, 5-hydroxytryptamine receptor 1A; experiment: Compound was tested for its potency against 5-hydroxytryptamine 1A receptor expressed in CHO cells (experiment 2); type: functional, cell-based
[10] = biological target: T2, 5-hydroxytryptamine receptor 1A (Homo sapiens); experiment: Antagonistic efficacy was evaluated by adenylyl cyclase assay in CHO cells stably expressing the human 5-HT1A receptor; type: functional, cell-based
[11] = biological target: T3, 5-hydroxytryptamine receptor 1A
[12] = biological target: T2, 5-hydroxytryptamine receptor 1A (Homo sapiens); experiment: Antagonistic efficacy was evaluated by adenylyl cyclase assay in CHO cells stably expressing the human 5-HT1A receptor (experiment 2); type: functional, cell-based
[13] = biological target: T2, 5-hydroxytryptamine receptor 1A (Homo sapiens); experiment: Antagonistic efficacy was evaluated by adenylyl cyclase assay in CHO cells stably expressing the human 5-HT1A receptor (experiment 1); type: functional, cell-based
[14] = biological target: T2, 5-hydroxytryptamine receptor 1A (Homo sapiens); experiment: Agonistic efficacy was evaluated by adenylyl cyclase assay in CHO cells stably expressing the human 5-HT1A receptor (experiment 2); type: functional, cell-based
[15] = biological target: T1, 5-hydroxytryptamine receptor 1A; experiment: as §1; type: cell membranes, Membrane; settings: read-out: pA2 (converted)
[16] = biological target: T1, 5-hydroxytryptamine receptor 1A; experiment: Compound was tested for its potency against 5-hydroxytryptamine 1A receptor in rat frontal cortex membranes (experiment 1); type: cell membranes, Membrane; settings: read-out: pA2 (converted)

SMILES | Kb [1] | Efficacy [2] | Ki [3] | Efficacy [4] | Efficacy [5] | Efficacy [6] | EC50 [7] | EC50 [8] | EC50 [9] | Efficacy [10] | EC50 [11] | Efficacy [12] | Efficacy [13] | Efficacy [14] | Kb [15] | Kb [16]
O=C1c2ccccc2S(=O)(=O)N1CCCCN1CCN(c2cc(Cl)cc3c2OCCO3)CC1 [DU 125530] | 0.288 nM | 0% | 0.708 nM | 100% | 0% | 100% | – | – | – | – | – | – | – | – | – | –
O=C1c2ccccc2S(=O)(=O)N1CCCCN1CCN(c2cccc3c2OCCO3)CC1 | 0.363 nM | 11% | 0.288 nM | 65% | 23% | 68% | – | – | – | – | – | – | – | – | – | –
O=C(CCCN1CCN(c2cccc3c2OCCO3)CC1)c1ccc(F)cc1 | – | 50% | 1.35 nM | 42% | 48% | 22% | 7.41 nM | 5.25 nM | – | – | – | – | – | – | – | –
O=C1c2ccccc2S(=O)(=O)N1CCN1CCN(c2cccc3c2OCCO3)CC1 | – | 97% | 1.23 nM | 0% | 86% | 0% | – | 251 nM | 631 nM | – | – | – | – | – | – | –
O=C1c2ccccc2S(=O)(=O)N1CCCCN1CCN(c2ncccn2)CC1 [IPSAPIRONE] | – | – | – | – | – | – | – | – | – | 0% | 67.6 nM | – | – | – | – | –
O=C(CCCN1CCN(c2cccc3c2OCCO3)CC1)c1ccccc1 | – | 71% | – | – | – | – | 2.82 nM | 2.88 nM | – | – | – | 18% | 33% | 67% | – | –
O=C(NCCN1CCN(c2cccc3c2OCC(CO)O3)CC1)c1ccc(F)cc1 (single isomer, unassigned) [FLESINOXAN] | – | – | – | – | – | – | – | – | – | 0% | 6.61 nM | – | – | – | – | –
O=C1c2ccccc2C(=O)N1CCN1CCN(c2cccc3c2OCCO3)CC1 | – | 0% | 31.6 nM | 2% | 30% | 0% | – | – | – | – | – | – | – | – | – | –
c1ccc(CCCCN2CCN(c3cccc4c3OCCO4)CC2)cc1 | – | 45% | – | 70% | 50% | 74% | 6.03 nM | 6.76 nM | – | – | – | – | – | – | 25.1 nM | –
O=C1c2ccccc2C(=O)N1CCCCN1CCN(c2cccc3c2OCCO3)CC1 | – | 44% | 0.229 nM | 62% | 49% | 55% | 5.75 nM | 1.35 nM | – | – | – | – | – | – | 0.676 nM | 0.661 nM
O=C(NCCCCN1CCN(c2cccc3c2OCCO3)CC1)c1ccc(F)cc1 | – | 81% | 1.05 nM | 0% | 85% | 17% | 31.6 nM | 12.6 nM | – | – | – | – | – | – | – | –
O=C(NCCN1CCN(c2cccc3c2OCCO3)CC1)c1ccc(F)cc1 | – | 97% | 0.295 nM | 0% | 97% | 0% | 0.851 nM | 0.955 nM | – | – | – | – | – | – | – | –
